The values that follow come from patent publication US9745324B2, “Iminothiadiazepane dioxide compounds as BACE inhibitors, compositions, and their use” (Merck Sharp & Dohme Corp., priority 2013, dated 2017).

Read-outs that look alike come from different tables or passages of the source.

In experiment [1] the target is soluble human BACE1 catalytic domain (Homo sapiens (Human), UniProt P56817). Kind of experiment: BACE1 HTRF FRET Assay. The format is biochemical. Conditions: Ki calculated from IC50 using the Cheng-Prusoff equation; QSY7-APPswe-Eu substrate, pH 5.0. The text has this:
Reagents: Na^+-Acetate pH 5.0; 1% Brij-35; Glycerol; Dimethyl Sulfoxide (DMSO); Recombinant human soluble BACE1 catalytic domain (>95% pure); APP Swedish mutant peptide substrate (QSY7-APP^swe-Eu): QSY7-[…]-Europium-amide (SEQ ID 1).
A homogeneous time-resolved FRET assay can be used to determine IC50 values for inhibitors of the soluble human BACE1 catalytic domain. This assay monitors the increase of 620 nm fluorescence that resulted from BACE1 cleavage of an APPswedish APP^swe mutant peptide FRET substrate (QSY7-[…]-Europium-amide (SEQ ID 1)). This substrate contains an N-terminal QSY7 moiety that serves as a quencher of the C-terminal Europium fluorophore (620 nm Em). […] Inhibition of BACE1 cleavage of the QSY7-APP^swe-Eu substrate by inhibitors is manifested as a suppression of 620 nm fluorescence.
Varying concentrations of inhibitors at 3× the final desired concentration in a volume of 10 ul are preincubated with purified human BACE1 catalytic domain (3 nM in 10 μl) for 30 minutes at 30° C. in reaction buffer containing 20 mM Na-Acetate pH 5.0, 10% glycerol, 0.1% Brij-35 and 7.5% DSMO. Reactions are initiated by addition of 10 μl of 600 nM QSY7-APP^swe-Eu substrate (200 nM final) to give a final reaction volume of 30 μl in a 384 well Nunc HTRF plate. The reactions are incubated at 30° C. for 1.5 hours. The 620 nm fluorescence is then read on a Rubystar HTRF plate reader (BMG Labtechnologies) using a 50 millisecond delay followed by a 400 millisecond acquisition time window. Inhibitor IC50 values are derived from non-linear regression analysis of concentration response curves.

Experiment [2] addresses purified human autoBACE-2 (Homo sapiens, UniProt Q9Y5Z0). Briefly: BACE-2 Assay (BACE-HTRF assay). The note with it: Ki calculated from IC50 using the Cheng-Prusoff equation, pH 5.0, read-out: BACE2 Ki. The format is biochemical. The procedure:
DMSO is present at 5% final concentration in the assay. Following laser excitation of sample wells at 320 nm, the fluorescence signal at 620 nm is collected for 400 ms following a 50 μs delay on a RUBYstar HTRF plate reader (BMG Labtechnologies). Raw RFU data is normalized to maximum (1.0 nM BACE/DMSO) and minimum (no enzyme/DMSO) RFU values. […] The Ki values are calculated from the IC50 using the Cheng-Prusoff equation.

[3] abbreviates: QSY7-EISEVNLDAEFC-Eu-amide substrate.

Sequence of purified human autoBACE-2 (Q9Y5Z0 63-518 limits assumed): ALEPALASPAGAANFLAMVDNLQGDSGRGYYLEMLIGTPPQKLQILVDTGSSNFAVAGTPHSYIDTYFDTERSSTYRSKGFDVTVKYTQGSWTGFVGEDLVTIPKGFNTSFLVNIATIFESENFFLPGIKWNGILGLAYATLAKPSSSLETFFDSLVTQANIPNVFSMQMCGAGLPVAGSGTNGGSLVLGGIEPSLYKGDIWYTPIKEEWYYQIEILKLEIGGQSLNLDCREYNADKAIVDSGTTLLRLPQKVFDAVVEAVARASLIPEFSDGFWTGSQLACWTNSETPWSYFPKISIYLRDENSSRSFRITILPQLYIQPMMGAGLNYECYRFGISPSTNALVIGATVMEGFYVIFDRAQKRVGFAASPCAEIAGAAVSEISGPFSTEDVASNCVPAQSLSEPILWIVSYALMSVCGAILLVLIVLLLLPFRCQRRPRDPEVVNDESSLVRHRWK
Sequence of soluble human BACE1 catalytic domain (P56817 75-416): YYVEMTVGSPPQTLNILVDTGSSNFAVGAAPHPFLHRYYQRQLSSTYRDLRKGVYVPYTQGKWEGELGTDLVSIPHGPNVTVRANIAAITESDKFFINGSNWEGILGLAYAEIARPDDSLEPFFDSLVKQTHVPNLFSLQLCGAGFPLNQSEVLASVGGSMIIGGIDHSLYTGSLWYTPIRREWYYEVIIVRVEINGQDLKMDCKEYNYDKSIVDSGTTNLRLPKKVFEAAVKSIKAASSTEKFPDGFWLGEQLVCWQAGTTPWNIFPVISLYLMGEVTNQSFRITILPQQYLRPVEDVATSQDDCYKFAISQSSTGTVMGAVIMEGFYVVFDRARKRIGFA

One may read the Ki as the dissociation constant of the complex between target and ligand, obtained from inhibition or displacement. As to `CN1C[C@@](C)(c2cc(NC(=O)c3ccc(OC(F)F)cn3)ccc2F)NC(=N)C(C)(C)S1(=O)=O` [Example 4, 5-(difluoromethoxy)-N-{4-fluoro-3-[(4R)-6-imino-2,4,7,7-tetramethyl-1,1-dioxido-1,2,5-thiadiazepan-4-yl]phenyl}pyridine-2-carboxamide], the Ki in experiment [1] is 32 nM; in experiment [2] (setting [3]), 144 nM.
With `CN1C[C@@](C)(c2cc(NC(=O)c3cnc(OCCF)cn3)ccc2F)NC(=N)C(C)(C)S1(=O)=O` [Example 14, 5-(2-fluoroethoxy)-N-{4-fluoro-3-[(4R)-6-imino-2,4,7,7-tetramethyl-1,1-dioxido-1,2,5-thiadiazepan-4-y]phenyl}pyrazine-2-carboxamide], the results for the Ki in experiment [1] and in experiment [2] (setting [3]) were 52 nM and 217 nM, respectively.
The corresponding values for `CN1C[C@@](C)(c2cc(NC(=O)c3ccn(C(F)F)n3)ccc2F)NC(=N)C(C)(C)S1(=O)=O` [Example 2, 1-(difluoromethyl)-N-{4-fluoro-3-[(4R)-6-imino-2,4,7,7-tetramethyl-1,1-dioxido-1,2,5-thiadiazepan-4-yl]phenyl}-1H-pyrazole-3-carboxamide] are 46 nM and 6 nM.
On to `CN1C[C@@](C)(c2cc(Nc3nccc4cc(C#N)cnc34)ccc2F)NC(=N)C(C)(C)S1(=O)=O` [Example 41, (R)-8-((4-fluoro-3-(6-imino-2,4,7,7-tetramethyl-1,1-dioxido-1,2,5-thiadiazepan-4-yl)phenyl)amino)-1,7-naphthyridine-3-carbonitrile], for which the values for the Ki in experiment [1] and in experiment [2] (QSY7-[…]-Eu-amide substrate) were 20 nM and 16 nM, respectively.
Turning to `COc1cnc(C(=O)Nc2ccc(F)c([C@]3(C)CN(C)S(=O)(=O)C(C)(C)C(=N)N3)c2)c(C)n1` [Example 10, N-{4-fluoro-3-[(4R)-6-imino-2,4,7,7-tetramethyl-1,1-dioxido-1,2,5-thiadiazepan-4-yl]phenyl}-5-methoxy-3-methylpyrazine-2-carboxamide], the results for the Ki in experiment [1] and in experiment [2] (setting [3]) were 62 nM and 59 nM, respectively.
The corresponding values for `Cc1cc(C(=O)Nc2ccc(F)c([C@]3(C)CN(C)S(=O)(=O)C(C)(C)C(=N)N3)c2)no1` [Example 19, N-{4-fluoro-3-[(4R)-6-imino-2,4,7,7-tetramethyl-1,1-dioxido-1,2,5-thiadiazepan-4-yl]phenyl}-5-methylisoxazole-3-carboxamide] are 1360 nM and 347 nM.
As to `Cc1nc2ccc(C(=O)Nc3ccc(F)c([C@]4(C)CN(C)S(=O)(=O)C(C)(C)C(=N)N4)c3)cc2o1` [Example 20, N-{4-fluoro-3-[(4R)-6-imino-2,4,7,7-tetramethyl-1,1-dioxido-1,2,5-thiadiazepan-4-yl]phenyl}-2-methyl-1,3-benzoxazole-6-carboxamide], the results for the Ki in experiment [1] and in experiment [2] (setting [3]) were 1140 nM and over 9540 nM, respectively.
In the same order, the values of `CN1C[C@@](C)(c2cc(NC(=O)c3cn(C)nc3C(F)(F)F)ccc2F)NC(=N)C(C)(C)S1(=O)=O` [Example 26, N-{4-fluoro-3-[(4R)-6-imino-2,4,7,7-tetramethyl-1,1-dioxido-1,2,5-thiadiazepan-4-yl]phenyl}-1-methyl-3-(trifluoromethyl)-1H-pyrazole-4-carboxamide] are 8790 nM and 6510 nM.
The corresponding values for `CN1C[C@@](C)(c2cc(NC(=O)c3ccccn3)ccc2F)NC(=N)C(C)(C)S1(=O)=O` [Example 21, N-{4-fluoro-3-[(4R)-6-imino-2,4,7,7-tetramethyl-1,1-dioxido-1,2,5-thiadiazepan-4-yl]phenyl}pyridine-2-carboxamide] are 228 nM and 43 nM.
In the same order, the values of `Cc1cc(C#N)cnc1C(=O)Nc1ccc(F)c([C@]2(C)CN(C)S(=O)(=O)C(C)(C)C(=N)N2)c1` [Example 11, 5-cyano-N-{4-fluoro-3-[(4R)-6-imino-2,4,7,7-tetramethyl-1,1-dioxido-1,2,5-thiadiazepan-4-yl]phenyl}-3-methylpyridine-2-carboxamide] are 24 nM and 28 nM.
For `CN1C[C@@](C)(c2cc(Nc3nccn4ccnc34)ccc2F)NC(=N)C(C)(C)S1(=O)=O` [Example 44, (R)-4-(2-fluoro-5-(imidazo[1,2-a]pyrazin-8-ylamino)phenyl)-6-imino-2,4,7,7-tetramethyl-1,2,5-thiadiazepane 1,1-dioxide], the Ki is 1350 nM in experiment [1] and 270 nM in experiment [2] (QSY7-[…]-Eu-amide substrate).
With `CN1C[C@@](C)(c2cc(NC(=O)c3ccc(OCF)cn3)ccc2F)NC(=N)C(C)(C)S1(=O)=O` [Example 38, N-{4-fluoro-3-[(4R)-6-imino-2,4,7,7-tetramethyl-1,1-dioxido-1,2,5-thiadiazepan-4-yl]phenyl}-5-(fluoromethoxy)pyridine-2-carboxamide], the Ki is 37 nM in experiment [1] and 46 nM in experiment [2] (setting [3]).
In the same order, the values of `COCC(=O)Nc1ccc(F)c([C@]2(C)CN(C)S(=O)(=O)C(C)(C)C(=N)N2)c1` [Example 25, N-{4-fluoro-3-[(4R)-6-imino-2,4,7,7-tetramethyl-1,1-dioxido-1,2,5-thiadiazepan-4-yl]phenyl}-2-methoxyacetamide] are 756 nM and 122 nM.
In the same order, the values of `CN1C[C@@](C)(c2cc(NC(=O)c3ccc(C#N)cn3)ccc2F)NC(=N)C(C)(C)S1(=O)=O` [Example 8, 5-cyano-N-{4-fluoro-3-[(4R)-6-imino-2,4,7,7-tetramethyl-1,1-dioxido-1,2,5-thiadiazepan-4-yl]phenyl}pyridine-2-carboxamide] are 22 nM and 32 nM.
The corresponding values for `CC(=O)Nc1ccc(F)c([C@]2(C)CN(C)S(=O)(=O)C(C)(C)C(=N)N2)c1` [Example 35, N-{4-fluoro-3-[(4R)-6-imino-2,4,7,7-tetramethyl-1,1-dioxido-1,2,5-thiadiazepan-4-yl]phenyl}acetamide] are 5930 nM and 917 nM.
Turning to `CN1C[C@@](C)(c2cc(NC(=O)c3ccc(C(F)(F)F)cn3)ccc2F)NC(=N)C(C)(C)S1(=O)=O` [Example 5, N-{4-fluoro-3-[(4R)-6-imino-2,4,7,7-tetramethyl-1,1-dioxido-1,2,5--thiadiazepan-4-yl]phenyl}-5-(trifluoromethyl)pyridine-2-carboxamide], the Ki in experiment [1] is 59 nM; in experiment [2] (setting [3]), 115 nM.
On to `CN1C[C@@](C)(c2cc(NC(=O)c3ccn(C)n3)ccc2F)NC(=N)C(C)(C)S1(=O)=O` [Example 18, N-{4-fluoro-3-[(4R)-6-imino-2,4,7,7-tetramethyl-1,1-dioxido-1,2,5-thiadiazepan-4-yl]phenyl}-1-methyl-1H-pyrazole-3-carboxamide], for which the figures for the Ki in experiment [1] and in experiment [2] (setting [3]) were 271 nM and 42 nM, respectively.
The corresponding values for `Cc1nc(C(=O)Nc2ccc(F)c([C@]3(C)CN(C)S(=O)(=O)C(C)(C)C(=N)N3)c2)no1` [Example 15, N-{4-fluoro-3-[(4R)-6-imino-2,4,7,7-tetramethyl-1,1-dioxido-1,2,5-thiadiazepan-4-yl]phenyl}-5-methyl-1,2,4-oxadiazole-3-carboxamide] are 153 nM and 27 nM.
In the same order, the values of `CN1C[C@@](C)(c2cc(NC(=O)c3cnc(C(F)(F)F)cn3)ccc2F)NC(=N)C(C)(C)S1(=O)=O` [Example 37, N-{4-fluoro-3-[(4R)-6-imino-2,4,7,7-tetramethyl-1,1-dioxido-1,2,5-thiadiazepan-4-yl]phenyl}-5-(trifluoromethyl)pyrazine-2-carboxamide] are 153 nM and 361 nM.
The corresponding values for `CN1C[C@@](C)(c2cc(NC(=O)c3ncc(Cl)cc3F)ccc2F)NC(=N)C(C)(C)S1(=O)=O` [Example 23, 5-chloro-3-fluoro-N-{4-fluoro-3-[(4R)-6-imino-2,4,7,7-tetramethyl-1,1-dioxido-1,2,5-thiadiazepan-4-yl]phenyl}pyridine-2-carboxamide] are 21 nM and 6.4 nM.
For the molecule `COCCC(=O)Nc1ccc(F)c([C@]2(C)CN(C)S(=O)(=O)C(C)(C)C(=N)N2)c1` [Example 24, N-{4-fluoro-3-[(4R)-6-imino-2,4,7,7-tetramethyl-1,1-dioxido-1,2,5-thiadiazepan-4-yl]phenyl}-3-methoxypropanamide], the Ki in experiment [1] is over 9760 nM; in experiment [2] (setting [3]), 4090 nM.
